Measured values as given in patent US12448373B2, “Azetidinyl-acetamides as CXCR7 inhibitors” (CHEMOCENTRYX, INC., priority 2021, dated 2025).

Biological target: T1, CXCR7 (Homo sapiens, UniProt P25106)
T1 construct: expressed in transfected cells; host or cells: CHO cells (CHO-CXCR7), transgenes maintained with Hygromycin B and G418
Assay: CXCR7 β-arrestin recruitment assay in CHO-CXCR7 cells (ProLink/EA β-galactosidase complementation), induced by human SDF-1a
Format: cell-based
Details: assay buffer, SDF-1a at EC50 concentration
How it was run: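 CHO cells co-expressing ProLink-tagged CXCR7 and β-arrestin-EA were pre-plated overnight, then given compound and human SDF-1α at its same-day EC50. After 1.5 h at 37 °C, complemented β-galactosidase was read from 0.4 mM 3-carboxyumbelliferyl β-D-galactopyranoside (30 min, 37 °C; ex 360/em 465 nm). IC50 by 3-parameter fit.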

T1 sequence (P25106 whole entry): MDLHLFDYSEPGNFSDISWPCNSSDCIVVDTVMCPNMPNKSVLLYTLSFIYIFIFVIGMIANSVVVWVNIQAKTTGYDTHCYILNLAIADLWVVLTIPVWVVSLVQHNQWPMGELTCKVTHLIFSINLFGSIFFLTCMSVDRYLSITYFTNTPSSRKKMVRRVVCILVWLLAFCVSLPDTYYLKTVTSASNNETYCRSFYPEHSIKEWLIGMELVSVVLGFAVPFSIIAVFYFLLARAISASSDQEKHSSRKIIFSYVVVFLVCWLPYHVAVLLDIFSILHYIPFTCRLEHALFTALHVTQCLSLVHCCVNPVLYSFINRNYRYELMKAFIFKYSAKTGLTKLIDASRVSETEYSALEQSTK

Row | SMILES | IC50
1 | CC(C)(NC(=O)CC1(NC(=O)c2cc(-c3ccc(F)cc3F)on2)CN(C2CCCCC2)C1)c1cccc(F)n1 [Example 1.297] | < 5 nM
2 | CC(C)(O)CN1CC(CC(=O)NC(C)(C)c2ncccn2)(NC(=O)c2cc(-c3ccc(F)cc3F)on2)C1 [Example 1.231] | 100 to 1000 nM
3 | CC(C)(NC(=O)CC1(NC(=O)c2ncc(-c3ccc(F)cc3F)s2)CN([C@H]2CC[C@@](C)(O)CC2)C1)c1cccc(Cl)c1 [Example 1.045] | 5 to 100 nM
4 | Cc1cc(C)nc(C(C)(C)NC(=O)CC2(NC(=O)c3cc(-c4ccc(F)cc4F)on3)CN(CC3(C)CCC3)C2)n1 [Example 1.001] | < 5 nM
5 | CCc1cc(C(C)(C)NC(=O)CC2(NC(=O)c3cc(-c4ccc(F)cc4F)on3)CN([C@H]3CC[C@](C)(O)CC3)C2)ccn1 [Example 1.149] | 5 to 100 nM
6 | O=C(CC1(NC(=O)c2cc(-c3ccc(F)cc3F)on2)CN(C2CCCCC2)C1)N[C@@H](C(=O)O)c1ccccc1 [Example 1.282] | 1000 to 20000 nM
7 | COC1CCC(N2CC(CC(=O)NC(C)(C)c3ccccn3)(NC(=O)c3cc(-c4ccc(F)cc4F)on3)C2)CC1 (centres unmarked) [Example 1.299] | 5 to 100 nM
8 | CC(C)(O)CN1CC(CC(=O)NC(C)(C)c2cc(F)cc(F)c2)(NC(=O)c2cc(-c3ccc(F)cc3F)on2)C1 [Example 1.137] | 5 to 100 nM
9 | CC(C)(NC(=O)CC1(NC(=O)c2cn(-c3ccc(F)cc3)nn2)CN([C@H]2CC[C@](C)(O)CC2)C1)c1ccccc1 [Example 1.084] | 100 to 1000 nM
10 | C[C@]1(O)CC[C@@H](N2CC(CC(=O)NCc3ccccc3)(NC(=O)c3cc(-c4ccc(F)cc4F)on3)C2)CC1 [Example 1.127] | 1000 to 20000 nM
11 | CC(C)(NC(=O)CC1(NC(=O)c2cc(-c3ccc(F)cc3F)sn2)CN([C@H]2CC[C@@](C)(O)CC2)C1)c1cccc(Cl)c1 [Example 1.043] | 100 to 1000 nM
12 | CC(C)(NC(=O)CC1(NC(=O)c2cc(-c3ccc(F)cc3F)on2)CN([C@@H]2CCCCC2(C)C)C1)c1ccccn1 [Example 1.274] | < 5 nM
13 | COC[C@@H](NC(=O)CC1(NC(=O)c2cc(-c3ccc(F)cc3F)on2)CN(C2CCCCC2)C1)c1ccccc1 [Example 1.295] | 100 to 1000 nM
14 | CC(C)(NC(=O)CC1(NC(=O)c2cc(-c3ccc(F)cc3F)on2)CN(C2CCCCC2(F)F)C1)c1ccccn1 (centres unmarked) [Example 1.311] | 5 to 100 nM
15 | CC(C)(NC(=O)CC1(NC(=O)c2csc(-c3ccc(F)cc3F)n2)CN([C@H]2CC[C@](C)(O)CC2)C1)c1cccc(Cl)c1 [Example 1.051] | 1000 to 20000 nM
16 | CC(C)(F)CN1CC(CC(=O)NC(C)(C)c2cccc(Cl)c2)(NC(=O)c2cc(-c3ccc(F)cc3F)on2)C1 [Example 1.096] | 100 to 1000 nM
17 | CC(C)(NC(=O)CC1(NC(=O)c2nnc(-c3ccc(F)cc3F)s2)CN([C@H]2CC[C@@](C)(O)CC2)C1)c1ccccn1 [Example 1.062] | 5 to 100 nM
18 | COc1cc(F)cc(C(C)(C)NC(=O)CC2(NC(=O)c3cc(-c4ccc(F)cc4F)on3)CN([C@H]3CC[C@@](C)(O)CC3)C2)c1 [Example 1.169] | < 5 nM
19 | COc1cc(C(C)(C)NC(=O)CC2(NC(=O)c3cc(-c4ccc(F)cc4F)on3)CN([C@H]3CC[C@@](C)(O)CC3)C2)ccn1 [Example 1.188] | < 5 nM
20 | Cc1cc(C)nc(C(C)(C)NC(=O)CC2(NC(=O)c3cc(-c4ccc(F)cc4F)on3)CN([C@H]3CC[C@](C)(O)CC3)C2)n1 [Example 1.168] | < 5 nM
21 | COc1cccc(C(C)(C)NC(=O)CC2(NC(=O)c3cc(-c4ccc(F)cc4F)on3)CN([C@H]3CC[C@](C)(O)CC3)C2)n1 [Example 1.204] | < 5 nM
22 | CC(C)(NC(=O)CC1(NC(=O)c2cc(-c3ccc(F)cc3F)on2)CN(CC2CCCC2)C1)c1ccccn1 [Example 1.029] | 5 to 100 nM

Row | SMILES | IC50
23 | CC(C)(NC(=O)CC1(NC(=O)c2cc(-c3ccc(F)cc3F)on2)CN([C@H]2CC[C@@](C)(O)CC2)C1)c1cc(Cl)ccc1F [Example 1.132] | < 5 nM
24 | Cc1cc(C)nc(C(C)(C)NC(=O)CC2(NC(=O)c3nnc(-c4ccc(F)cc4F)s3)CN(CC3CC3)C2)n1 [Example 1.030] | 5 to 100 nM
25 | CC(C)(NC(=O)CC1(NC(=O)c2cn(-c3ccc(F)cc3F)nn2)CN([C@H]2CC[C@](C)(O)CC2)C1)c1ccccc1 [Example 1.081] | 5 to 100 nM
26 | CC(C)(NC(=O)CC1(NC(=O)c2cc(-c3ccc(F)cc3F)on2)CN([C@H]2CC[C@](C)(O)CC2)C1)c1cccnc1 [Example 1.194] | 5 to 100 nM
27 | C[C@]1(O)CC[C@@H](N2CC(CC(=O)NCc3ccccn3)(NC(=O)c3cc(-c4ccc(F)cc4F)on3)C2)CC1 [Example 1.098] | 1000 to 20000 nM
28 | CC(C)(NC(=O)CC1(NC(=O)c2cc(-c3ccc(F)cc3F)on2)CN([C@H]2CC[C@@](C)(C(=O)O)CC2)C1)c1ccccn1 [Example 1.107] | 1000 to 20000 nM
29 | COc1cccc(C(C)(C)NC(=O)CC2(NC(=O)c3cc(-c4ccc(F)cc4F)on3)CN(CC3CC3)C2)c1 [Example 1.117] | 100 to 1000 nM
30 | CCc1cccc(C(C)(C)NC(=O)CC2(NC(=O)c3cc(-c4ccc(F)cc4F)on3)CN([C@H]3CC[C@](C)(O)CC3)C2)c1 [Example 1.209] | 5 to 100 nM
31 | Cc1ccc(F)c(C(C)(C)NC(=O)CC2(NC(=O)c3cc(-c4ccc(F)cc4F)on3)CN([C@H]3CC[C@](C)(O)CC3)C2)n1 [Example 1.008] | < 5 nM
32 | CC(C)(NC(=O)CC1(NC(=O)c2cc(-c3ccc(F)cc3F)on2)CN([C@H]2CC[C@@](C)(O)CC2)C1)c1cccnc1 [Example 1.193] | 5 to 100 nM
33 | CC(C)(O)CCN1CC(CC(=O)NC(C)(C)c2cccc(F)c2)(NC(=O)c2cc(-c3ccc(F)cc3F)on2)C1 [Example 1.229] | 5 to 100 nM
34 | CC(C)(NC(=O)CC1(NC(=O)c2nnc(-c3ccc(F)cc3F)s2)CN([C@H]2CC[C@@](C)(O)CC2)C1)c1cccc(Cl)c1 [Example 1.064] | < 5 nM
35 | CC(C)(NC(=O)CC1(NC(=O)c2cc(-c3ccc(F)cc3F)on2)CN([C@H]2CC[C@](C)(O)CC2)C1)c1cc(F)cc(F)c1 [Example 1.153] | < 5 nM
36 | CC(C)(NC(=O)CC1(NC(=O)c2cc(-c3ccc(F)cc3F)on2)CN(C2CCCCC2)C1)c1ccc(F)cc1 [Example 1.298] | 5 to 100 nM
37 | CC(C)CN1CC(CC(=O)NC(C)(C)c2cncc(Cl)c2)(NC(=O)c2cc(-c3ccc(F)cc3F)on2)C1 [Example 1.016] | 5 to 100 nM
38 | Cc1cc(C(F)(F)F)cc(C(C)(C)NC(=O)CC2(NC(=O)c3nnc(-c4ccc(F)cc4F)s3)CN([C@H]3CC[C@](C)(O)CC3)C2)n1 [Example 1.349] | 5 to 100 nM
39 | Cc1cc(C(C)(C)NC(=O)CC2(NC(=O)c3cc(-c4ccc(F)cc4F)on3)CN([C@H]3CC[C@](C)(O)CC3)C2)cc(C)n1 [Example 1.112] | 5 to 100 nM
40 | CC(C)(NC(=O)CC1(NC(=O)c2cc(-c3ccc(F)cc3F)on2)CN(C2CCC3(CCOCC3)CC2)C1)c1ccccn1 [Example 1.102] | 100 to 1000 nM
41 | CC(C)(NC(=O)CC1(NC(=O)c2cc(-c3ccc(F)cc3F)on2)CN([C@H]2CC[C@](C)(O)CC2)C1)c1cc(F)cc(Cl)c1 [Example 1.124] | < 5 nM
42 | CC(C)(NC(=O)CC1(NC(=O)c2cc(-c3ccc(F)cc3F)no2)CN([C@H]2CC[C@@](C)(O)CC2)C1)c1cccc(Cl)c1 [Example 1.047] | 5 to 100 nM
43 | CC(C)CN1CC(CC(=O)NC(C)(C)c2ccnc3[nH]ccc23)(NC(=O)c2cc(-c3ccc(F)cc3F)on2)C1 [Example 1.077] | < 5 nM
44 | CC(C)(NC(=O)CC1(NC(=O)c2cc(-c3ccc(F)cc3F)on2)CN([C@H]2CC[C@@](C)(O)CC2)C1)c1ccccn1 [Example 1.192] | < 5 nM
